The values below come from patent publication US20220220100A1 (SOLUTIA CANADA INC., priority 2019, published 2022).

Format in all cases: physicochemical
A short description of series [1]: Oxidation potential of ring-closed and ring-open isomers. The note with it: no unit printed in table (V relative to Ag/AgCl). An excerpt: In various embodiments, at a PSS, some of the chromophore will be in the ring-closed isomer, with a small, but non-zero portion of ring-open isomer. The oxidation potential of a ring-open isomer may be more anodic than the oxidation potential of a ring-closed isomer. Exposure to a potential that is too far beyond what is necessary to oxidize the ring-closed isomer may result in oxidation of the ring-open isomer, which may be irreversible and result in electrochemically-induced degradation of the chromophore.
Thus, in various embodiments, an anodic chromophore may have an oxidation potential of from about 0.4 V to 1.2 V for the ring-closed isomer and about 1.0 V to 2.5 V for the ring-open isomer relative to an Ag/AgCl reference electrode. In various embodiments, the oxidation potential for the ring-open isomer is about 250 mV more anodic than the oxidation potential for the ring-closed isomer. For example, the oxidation potential may be about 260 mV, about 280 mV, about 300 mV, about 320 mV, about 340 mV, about 360 mV, about 380 mV, about 400 mV, about 420 mV, about 440 mV, or about 460 mV more anodic than the oxidation potential for the ring-closed isomer.

A short description of series [2]: UV/Vis absorbance at 400 nm and Yellowness Index of the ring-open isomer. Conditions: for Abs @ 400 nm, RO (Absorption of ring-open isomer at 400 nm): 2×10^−5 M solution, 1 cm pathlength cuvette. An excerpt:
In addition to the above, chromophores should have acceptable colour for both the ring-opened and ring-closed isomers. For example, the ring-open isomer of the chromophore should have a Yellowness Index (YI) of less than about 10 and an absorbance at 400 nm, as measured for a 2×10^−5 M solution in a 1 cm pathlength cuvette. For the ring-closed isomer of the chromophore, the lambda max should be between about 475 nm and 700 nm, tunable according to desired colour and number of chromophores in the composition.
(§1) UV/Vis spectra were obtained using an OceanOptics™ Spectrophotometer. A 2×10^−5 M solution of compound in solvent was prepared, and photofaded using visible light until absorption in the visible region of the spectrum stabilized. The sample was then irradiated with simulated sunlight (QSUN SS-150 Solar Simulator with xenon arc lamp) until the absorption spectrum stabilized. To obtain PSS in the presence of a UV blocking film, a second sample was prepared and irradiated as described, with a UV blocking film inserted in the light path when irradiating.

Series [3] in a line: Photostationary state (PSS) and lambda max under simulated sunlight (solar simulator). The note with it: for PSS (SS): absorbance at photostationary state, simulated sunlight (solar simulator), 2×10^−5 M solution; for λmax (nm): peak in the visible range, ring-closed (dark) state.
Excerpt: The term “photostationary state” (PSS) refers to an equilibrium state of a compound or material where the rate of the ring closing (forward) reaction is equal to the rate of the ring-opening reaction, when irradiated with light in a given region of the spectrum. In other words, the ratio of the ring-open isomer to the ring-closed isomer is at an equilibrium. PSS may be expressed with reference to a light source, or with reference to a type of light, for example, QUV, Xenon-arc lamp, Q-SUN, natural or filtered sunlight, UV, VIS, IR, NIR, full spectrum or the like, or with reference to a particular wavelength or range of wavelengths, or in the presence or absence of a filter. Some ring-open and ring-closed isomers may undergo isomerization from one to the other in response to different wavelengths of light. If a wavelength of light is used where only one of the isomers absorbs, irradiation results in complete isomerization to the other form. 254 nm, 313 nm or 365 nm light are commonly used in studies of UV-absorbing isomers, but this may not be representative of the PSS under other light conditions that include the visible spectrum such as natural or simulated sunlight (“full spectrum” light) and/or with filters that block a portion of the UV component of the light. For example, in a ring-closed (dark) state, the magnitude of the maximum absorbance in the visible range may change with the light source (FIG. 1). The wavelength at this peak in the visible range may be referred to as lambda max, or λmax. […] When full spectrum light from a solar simulator (Xenon arc lamp) is used as a light source (line B), a balance is achieved between the ring-closed (dark) state induced by the UV component, and a ring-open (faded) state induced by the visible component of the light. Inclusion of a UV blocking layer in the light path (line A) may reduce the UV component of the light, and the ring-opening reaction induced by the visible light component becomes more prominent. […] Where desired, the ratio of ring-open and ring-closed isomers at a PSS may be quantified by ^1H NMR spectroscopy, such as described in U.S. Pat. No. 7,777,055. In various embodiments, compounds with an increased absorbance at a photostationary state (PSS), or increased contrast ratio, are an improvement over other diarylethene compounds. A compound with a greater absorbance in the visible range can be used in lesser quantities in a formulation or material to achieve a desired contrast ratio, whereas a compound with a lower absorbance at a PSS may need a higher concentration to achieve a desired contrast ratio.
Photostationary State (PSS)
as §1

Series [4] can be described thus: Photostability: xenon arc weathering of chromophore solutions, LCMS analysis. Conditions: for Ketone (%) / Minus-2HF (%) / Minus-HF (%) / Sulfone (%) / Chromophore Remaining (%): xenon arc, 82° C. bp; for Ketone (%) / Minus-2HF (%) / Minus-HF (%) / Sulfone (%): linearly interpolated to 0.5 MJ/m2 @ 340 nm; for Chromophore Remaining (%): linearly interpolated to 0.5 MJ/m2 @ 340 nm of exposure energy; for Photostability (in words): weathering experiments. An excerpt: Photostability (resistance to light-induced degradation) may be measured by the amount of time required for the compound, or a material comprising the compound, to degrade to a certain point under light exposure. The light exposure may be constant, or cyclic. The light transmittance or absorbance of the compound, or material comprising the compound, may be determined at both a light state and dark state prior to testing, to determine a contrast ratio. During testing, the contrast ratio may be monitored (periodically or continually), the compound or material may be determined to have failed when the contrast ratio falls outside, or below, a selected range, or when the contrast ratio decreases to a percentage of the original contrast ratio. Photostability may also be expressed with reference to a light source or with reference to a type of light.
Chromophore solutions in Rhodiasolv IRIS were prepared at 1 to 10 wt % loading. Solutions were prepared in a glovebox by charging the chromophore and Rhodiasolv IRIS to a trace-clean vial, and the solution was stirred on a hotplate at 90° C. for 2-24 hours. After cooling, the chromophore solution was injected into glass weathering cells and the fill and vent ports were sealed with a thin disc of Kalrez (FFKM Perfluorinated Elastomer) and secured with a clamp and set-screw. The weathering cells were filled and sealed inside the glove box.
Measurement of Photostability
A. Fabrication of cuvettes. Two holes of 0.8 mm diameter were drilled at opposite ends in a 75×50 mm piece of float glass using a diamond drill bit in a rotary tool. The drilled glass and a matching piece of undrilled glass were then cleaned using hot soapy water, rinsed with deionized water and acetone and then dried with compressed air. A 5 mm wide frame was cut from a sheet of 50 μm thickness EVAL EF-F using a laser engraver. The EVAL frame was placed around the perimeter of one sheet of glass and sandwiched by the second sheet of glass. The glass-EVAL-glass sandwich was secured with tape and heated under vacuum (10 mmHg) for 30 minutes at 170° C. in a vacuum bag. After cooling, a third piece of float glass was PVB laminated to the non-drilled side of the sealed glass cells using Trosifol UV Extra Protect B150 PVB (400 nm UV cut-off).
B. Xenon arc weathering protocol. Devices were exposed to simulated weathering conditions inside a Xe-3-HS xenon arc chamber, manufactured by Q-labs Inc. The samples were weathered according to the following table. The devices were exposed to these conditions continuously, with no dark or spray cycles included.
C. Analysis of weathered chromophore solutions by LCMS. The set-screws, metal clamps and Kalrez plugs were removed from the cuvette to expose the fill port. A 5 mL plastic syringe (NORM-JECT®) equipped with a tip (Precision Tips, 0.010″ RED) was inserted into one fill port and the chromophore solution was withdrawn from the cuvette. The chromophore solution was then injected into a 2 mL amber vial (part number 5182-0716, Agilent Technology) prefilled with 1.5 mL LC-MS grade acetonitrile (HiPerSolbe CHROMANORM Acetonitrile, VWR BDH Chemicals). An aliquot of the acetonitrile solution (2 μL) was injected into the LC-MS system (Agilent Infinity 1290 LC-MS system with diode array detector) through an autosampler mechanism. Species in the injected sample were separated through a reverse phase column (Zorbax SB-C18, 2.1×50 mm, 1.8 μm, operated at 40° C.), using a mixture of acetonitrile (mixed with 1% formic acid v/v ratio), methanol (HiPerSolbe CHROMANORM Methanol, VWR BDH Chemicals) and water (HiPerSolbe CHROMANORM Water, VWR BDH Chemicals) as mobile phase.

Setting [5] is: 1 wt %, interpolated to 0.5 MJ/m^2 of energy exposure at 340 nm.

Turning to `COc1cc2oc(-c3ccc(C(C)(C)C)cc3)c(C3=C(c4cc(-c5cccs5)sc4-c4cccs4)C(F)(F)C(F)(F)C3(F)F)c2cc1OC` [Chromophore S193, 3-(2-([2,2′:5′,2″-terthiophen]-3′-yl)-3,3,4,4,5,5-hexafluorocyclopent-1-en-1-yl)-2-(4-(tert-butyl)phenyl)-5,6-dimethoxybenzofuran], in series [1] (ring-closed isomer), the “RC [O] (oxidation potential of ring-closed isomer)” value is reported as 1.02. Moreover, the “RO [O] (oxidation potential of ring-open isomer)” value in series [1] (ring-open isomer) is recorded as 1.41. In series [2], the “YI (Yellowness Index)” value is reported as 3.59 and the “Abs @ 400 nm, RO (Absorption of ring-open isomer at 400 nm)” value stood at 0.097. For the same compound, in series [3], the “PSS (SS)” value is reported as 0.269 and the “λmax (nm)” value is recorded as 587 nm. For the same compound, in series [4] (3 wt % in Rhodiasolv IRIS), the “Ketone (%)” value was found to be 0.0%, the “Minus-2HF (%)” value was 2.1%, the “Minus-HF (%)” value amounted to 1.4% and the “Sulfone (%)” value is 0.0%. Besides, the “Chromophore Remaining (%)” value in series [4] (3 wt % in Rhodiasolv IRIS) is recorded as 92.7%. The “Ratio of chromophore remaining relative to S340” value in series [4] (3 wt %, interpolated to 0.5 MJ/m^2 of energy exposure at 340 nm) is recorded as 1.02. In series [4], the “Photostability (in words)” value was “high photostability”.

Consider `COc1cc2oc(-c3ccc(C(C)(C)C)cc3)c(C3=C(c4cc(-c5cc6c(s5)C(C)(C)CC6(C)C)sc4-c4cc5c(s4)C(C)(C)CC5(C)C)C(F)(F)C(F)(F)C3(F)F)c2cc1OC` [Chromophore S404], for which, in series [2], the “YI (Yellowness Index)” value is reported as 11.1 and the “Abs @ 400 nm, RO (Absorption of ring-open isomer at 400 nm)” value was 0.182. Besides, in series [3], the “PSS (SS)” value was 0.429 and the “λmax (nm)” value is on record as 599 nm. In series [4] (1 wt % in Rhodiasolv IRIS), the “Ketone (%)” value was determined as 0.0%, the “Minus-2HF (%)” value is 0.0%, the “Minus-HF (%)” value is 0.0% and the “Sulfone (%)” value is on record as 0.0%. In addition, the “Chromophore Remaining (%)” value in series [4] (1 wt % in Rhodiasolv IRIS) is recorded as 100.0%. In series [4] (setting [5]), the “Ratio of chromophore remaining relative to S340” value came out at 1.10 and the “Sum of degradation product percentages relative to the sum of degradation product percentages for S340” value worked out at 0.00. Also, in series [4], the “Photostability (in words)” value is “high photostability”.
